pIC50: −log10 of the molar value. Structures can show the parent of a compound that is named as a salt.
Legend:
hSTING = target: T1, hSTING (Homo sapiens, UniProt Q86WV6); assay: Inhibition test of intracellular human STING (hSTING) pathways using reporter cells (HEK-Blue ISG, SEAP reporter); assay type: cell-based; settings: stimulation with Compound 3 (10 nM), 21 hours; for pIC50: read-out: Inhibitory Activity on hSTING
T1 construct: host or cells: HEK-Blue ISG cells (HEK293-derived SEAP reporter line)
T1 sequence (Q86WV6 whole entry H232R): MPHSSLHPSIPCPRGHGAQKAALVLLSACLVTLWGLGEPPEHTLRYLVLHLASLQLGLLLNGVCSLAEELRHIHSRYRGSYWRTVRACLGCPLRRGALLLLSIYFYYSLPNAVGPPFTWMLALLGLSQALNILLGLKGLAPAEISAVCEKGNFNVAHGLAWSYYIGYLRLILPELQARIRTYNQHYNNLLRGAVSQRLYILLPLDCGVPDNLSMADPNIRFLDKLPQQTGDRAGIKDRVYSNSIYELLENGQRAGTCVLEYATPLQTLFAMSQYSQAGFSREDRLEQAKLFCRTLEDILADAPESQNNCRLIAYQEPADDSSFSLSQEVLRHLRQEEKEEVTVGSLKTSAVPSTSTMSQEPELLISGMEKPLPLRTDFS
Description: Since STING activates the transcription factor IRF3 by ligand stimulation, the activity of STING can be evaluated by a reporter assay using a secreted alkaline phosphatase (SEAP reporter) incorporated downstream of the IRF-inducible promoter. In other words, the hSTING inhibitory activity of the test compounds was evaluated using HEK-Blue™ ISG cells (manufactured by InvivoGen, #hkb-isg-1) into which the SEAP reporter was incorporated. The activation of hSTING was performed by stimulation with the small molecule ligand, Compound 3 as described in the literature (Ramanjulu, J. M., et al., Nature. 2018, 564 (7736), 439-443).
The HEK-Blue™ ISG cells were seeded in 96-well plates and cultured overnight at 37° C. in a 5% CO2 incubator. To each well of the cell culture plates, a test compound solution adjusted to have a final concentration of 0.1 to 10 μM was added and cultured in the CO2 incubator for 1 hour. Then, the Compound 3 (final concentration of 10 nM) was added thereto and further cultured in the CO2 incubator for 21 hours. After collecting the culture supernatant from each well, the reporter activity was measured by luminous reaction of alkaline phosphatase.
(§1) Method for Evaluating Inhibitory Activity. Taking the reporter activity in the group without test compounds added and with Compound 3 added as 100% and the reporter activity in the group without test compounds added and without Compound 3 added as 0%, IC50 values were determined by regression analysis of the inhibition rate calculated from the reporter activity at each compound concentration and the test compound concentration (logarithm).
Evaluation Result. […] The inhibitory effect on the hSTING was indicated by marking an IC50 value of less than 0.1 μM with ***, that of 0.1 μM or more and less than 1 μM with **, that of 1 μM or more and less than 10 μM with *, and that of 10 μM or more with “-”.

STING = target: T2, STING (Homo sapiens, UniProt Q86WV6, G230A/H232R/R293Q/R71H); assay: Inhibition test of human IFN-β production by cGAMP stimulation in THP-1 cells; assay type: cell-based; settings: PMA-treated THP-1 cells, 2'3'-cGAMP transfection, 18 hours, ELISA of culture supernatant; read-out: Inhibitory effect on the IFN-β production
T2 construct: host or cells: THP-1 cells, PMA-treated
T2 sequence (Q86WV6 whole entry R71H/G230A/H232R/R293Q): as the sequence (Q86WV6 whole entry H232R) above, with R71H, G230A, R293Q counted along it
Description: The human monocytic cell line THP-1 cells were used to measure the amount of IFN-β produced when stimulated with the endogenous ligand cGAMP, thereby evaluating the inhibitory activity of the test compounds on STING activation.
After THP-1 cells (manufactured by ATCC) were seeded in 96-well plates, PMA (manufactured by Santa Cruz Biotechnology, Inc.) adjusted to a concentration after addition of 100 nM was added and cultured overnight at a 37° C. in a 5% CO2 incubator (10% FBS, 50 U/mL penicillin/50 μg/mL streptomycin-containing RPMI 1640 medium). To each well of the plate, a test compound solution adjusted to a final concentration of 0.001-1 μM of the test compound was added and cultured in the CO2 incubator for 1 hour (DMSO final concentration of 0.1%). 0.12 μg/well of 2′3′-cGAMP (manufactured by ChemieTek, #CT-CGAMP) was introduced into the cells by transfection method using Lipofectamine 2000 (manufactured by Invitrogen) and cultured in the CO2 incubator for another 18 hours. After collecting the culture supernatant from each well, the amount of human IFN-P production in the culture supernatant was measured by ELISA method using R&D human IFN-β Duoset (manufactured by R&D systems).
as §1, with “amount of human IFN-β production” for “reporter activity”, “cGAMP” for “Compound 3”
Evaluation Result. […] The inhibitory effect on the IFN-β production was indicated by marking an IC50 value of less than 0.01 μM with ***, that of 0.01 μM or more and less than 0.1 μM with **, that of 0.1 μM or more and less than 1 μM with *, and that of 1 μM or more with “-”, and NT was marked as unmeasured.

Row | SMILES | pIC50 (hSTING) | pIC50 (STING) | Inhibitory Activity on hSTING (hSTING)
1 | CNn1c(Nc2c[nH]c3c(F)cc(F)cc23)nc2cc(C(F)(F)F)cc(F)c21 [Example 13, N2-(5,7-difluoro-1H-indol-3-yl)-7-fluoro-N1-methyl-5-(trifluoromethyl)-1H-benzo[d]imidazole-1,2-diamine hydrochloride] | > 7.00 | > 8.00 | 
2 | CNn1c(Nc2c[nH]c3cc(F)c(C)cc23)nc2cc(C(F)(F)F)ccc21 [Example 18, N2-(6-fluoro-5-methyl-1H-indol-3-yl)-N1-methyl-5-(trifluoromethyl)-1H-benzo[d]imidazole-1,2-diamine] | > 7.00 | > 8.00 | 
3 | Nn1c(Nc2c[nH]c3ccc(F)cc23)nc2cc(C(F)(F)F)ccc21 [Example 28, N2-(5-fluoro-1H-indol-3-yl)-5-(trifluoromethyl)-1H-benzo[d]imidazole-1,2-diamine] | 6.00 to 7.00 | 7.00 to 8.00 | 
4 | CNn1c(Nc2c[nH]c3ccc(F)c(F)c23)nc2cc(C(F)(F)F)ccc21 [Example 3, N2-(4,5-difluoro-1H-indol-3-yl)-N1-methyl-5-(trifluoromethyl)-1H-benzo[d]imidazol-1,2-diamine Hydrochloride] | > 7.00 | > 8.00 | 
5 | CNn1c(Nc2c[nH]c3ccc(Cl)nc23)nc2cc(C(F)(F)F)ccc21 [Example 26, N2-(5-chloro-1H-pyrrolo[3,2-b]pyridin-3-yl)-N1-methyl-5-(trifluoromethyl)-1H-benzo[d]imidazole-1,2-diamine hydrochloride] | 5.00 to 6.00 | 6.00 to 7.00 | 
6 | CNn1c(Nc2c[nH]c3ncc(Cl)cc23)nc2cc(C(F)(F)F)ccc21 [Example 27, N2-(5-chloro-1H-pyrrolo[2,3-b]pyridin-3-yl)-N1-methyl-5-(trifluoromethyl)-1H-benzo[d]imidazole-1,2-diamine hydrochloride] | 6.00 to 7.00 | 6.00 to 7.00 | 
7 | Nn1c(Nc2c[nH]c3ccc(Cl)cc23)nc2cc(C(F)(F)F)ccc21 [Example 1, N2-(5-chloro-1H-indol-3-yl)-5-(trifluoromethyl)-1H-benzo[d]imidazol-1,2-diamine Hydrochloride] | > 7.00 | > 8.00 | 
8 | CCNn1c(Nc2c[nH]c3cc(F)c(F)cc23)nc2cc(C(F)(F)F)cc(F)c21 [Example 23, N2-(5,6-difluoro-1H-indol-3-yl)-N1-ethyl-7-fluoro-5-(trifluoromethyl)-1H-benzo[d]imidazole-1,2-diamine hydrochloride] | > 7.00 | 7.00 to 8.00 | 
9 | CNn1c(Nc2c[nH]c3ccc(F)cc23)nc2cc(C(F)(F)F)ccc21 [Example 16, N2-(5-fluoro-1H-indol-3-yl)-N1-methyl-5-(trifluoromethyl)-1H-benzo[d]imidazole-1,2-diamine hydrochloride] | > 7.00 | > 8.00 | 
10 | CCCNn1c(Nc2c[nH]c3ccc(Cl)cc23)nc2cc(C(F)(F)F)ccc21 [Example 24, N2-(5-chloro-1H-indol-3-yl)-N1-propyl-5-(trifluoromethyl)-1H-benzo[d]imidazole-1,2-diamine] | > 7.00 | 7.00 to 8.00 | 
11 | CNn1c(Nc2c[nH]c3ccc(C)cc23)nc2cc(C(F)(F)F)c(F)cc21 [Example 8, 6-fluoro-N1-methyl-N2-(5-methyl-1H-indol-3-yl)-5-(trifluoromethyl)-1H-benzo[d]imidazole-1,2-diamine] | > 7.00 | > 8.00 | 
12 | CNn1c(Nc2c[nH]c3ccc(F)c(F)c23)nc2cc(C(F)(F)F)c(F)cc21 [Example 12, N2-(4,5-difluoro-1H-indol-3-yl)-6-fluoro-N1-methyl-5-(trifluoromethyl)-1H-benzo[d]imidazole-1,2-diamine hydrochloride] | 5.00 to 6.00 | < 6.00 | 
13 | CCNn1c(Nc2c[nH]c3c(F)cc(F)cc23)nc2cc(C(F)(F)F)ccc21 [Example 19, N2-(5,7-difluoro-1H-indol-3-yl)-N1-ethyl-5-(trifluoromethyl)-1H-benzo[d]imidazole-1,2-diamine] | > 7.00 | > 8.00 | 
14 | CCNn1c(Nc2c[nH]c3ccc(F)cc23)nc2cc(C(F)(F)F)ccc21 [Example 29, N1-ethyl-N2-(5-fluoro-1H-indol-3-yl)-5-(trifluoromethyl)-1H-benzo[d]imidazole-1,2-diamine] | > 7.00 | 7.00 to 8.00 | 
15 | Nn1c(Nc2c[nH]c3ccc(F)c(F)c23)nc2cc(C(F)(F)F)ccc21 [Example 11, N2-(4,5-difluoro-1H-indol-3-yl)-5-(trifluoromethyl)-1H-benzo[d]imidazole-1,2-diamine hydrochloride] | 6.00 to 7.00 | 7.00 to 8.00 | 
16 | CCNn1c(Nc2c[nH]c3cc(F)c(F)cc23)nc2cc(C(F)(F)F)ccc21 [Example 15, N2-(5,6-difluoro-1H-indol-3-yl)-N1-ethyl-5-(trifluoromethyl)-1H-benzo[d]imidazole-1,2-diamine] | > 7.00 | > 8.00 | 
17 | CNn1c(Nc2c[nH]c3ccc(C)c(F)c23)nc2cc(C(F)(F)F)ccc21 [Example 17, N2-(4-fluoro-5-methyl-1H-indol-3-yl)-N1-methyl-5-(trifluoromethyl)-1H-benzo[d]imidazole-1,2-diamine hydrochloride] | > 7.00 | > 8.00 | 
18 | CC(C)Nn1c(Nc2c[nH]c3ccc(Cl)cc23)nc2cc(C(F)(F)F)ccc21 [Example 20, N2-(5-chloro-1H-indol-3-yl)-N1-isopropyl-5-(trifluoromethyl)-1H-benzo[d]imidazole-1,2-diamine] |  |  | * *
19 | CNn1c(Nc2c[nH]c3c(F)cc(F)cc23)nc2cc(C(F)(F)F)ccc21 [Example 5, N2-(5,7-difluoro-1H-indol-3-yl)-N1-methyl-5-(trifluoromethyl)-1H-benzo[d]imidazol-1,2-diamine] | > 7.00 | > 8.00 | 
20 | CCNn1c(Nc2c[nH]c3ccc(Cl)cc23)nc2cc(C(F)(F)F)ccc21 [Example 6, N2-(5-chloro-1H-indol-3-yl)-N1-ethyl-5-(trifluoromethyl)-1H-benzo[d]imidazol-1,2-diamine Hydrochloride] | > 7.00 | > 8.00 | 
21 | Cl.[2H]C([2H])([2H])Nn1c(Nc2c[nH]c3ccc(Cl)cc23)nc2cc(C(F)(F)F)ccc21 [Example 25, N2-(5-chloro-1H-indol-3-yl)-N1-(methyl-d3)-5-(trifluoromethyl)-1H-benzo[d]imidazole-1,2-diamine hydrochloride] | > 7.00 | > 8.00 | 
22 | Nn1c(Nc2c[nH]c3ccc(Cl)cc23)nc2cc(C(F)(F)F)c(F)cc21 [Example 7, N2-(5-chloro-1H-indol-3-yl)-6-fluoro-5-(trifluoromethyl)-1H-benzo[d]imidazole-1,2-diamine hydrochloride] | > 7.00 | > 8.00 | 
23 | Nn1c(Nc2c[nH]c3c(F)cc(F)cc23)nc2cc(C(F)(F)F)ccc21 [Example 21, N2-(5,7-difluoro-1H-indol-3-yl)-5-(trifluoromethyl)-1H-benzo[d]imidazole-1,2-diamine hydrochloride] | > 7.00 | 6.00 to 7.00 | 
24 | Cc1ccc2[nH]cc(Nc3nc4cc(C(F)(F)F)c(F)cc4n3N)c2c1 [Example 9, 6-fluoro-N2-(5-methyl-1H-indol-3-yl)-5-(trifluoromethyl)-1H-benzo[d]imidazole-1,2-diamine hydrochloride] | 6.00 to 7.00 | > 8.00 | 

— patent US12037325B2, “1,2-diaminobenzimidazole derivative” (Carna Biosciences, Inc., priority 2021, dated 2024)
